We go through 1 compound from PMC5218480 (PLoS ONE, 2017).

The test concerns MV-4-11 cells. Put plainly: Gene expression microarray analysis (Affymetrix PrimeView) and GSEA. To be noted: MV-4-11 cells, 48 hours. It counts as cell-based, human. Also noted: RFU PODN (11730768_x_at) / Fold change /veh PODN (11730768_x_at) / RFU LINC00158 (11744669_a_at) / Fold change /veh LINC00158 (11744669_a_at) / RFU DUSP10 (11751237_a_at) / Fold change /veh DUSP10 (11751237_a_at) / RFU ID3 (11757404_x_at) / Fold change /veh ID3 (11757404_x_at) / RFU PLEKHG5 (11737974_s_at) / Fold change /veh PLEKHG5 (11737974_s_at) / RFU LRRC4B (11730491_at) / Fold change /veh LRRC4B (11730491_at) / RFU GIMAP4 (11747438_a_at) / Fold change /veh GIMAP4 (11747438_a_at) / RFU KRT8 (11758183_x_at) / Fold change /veh KRT8 (11758183_x_at) / RFU CNN1 (11734310_a_at) / Fold change /veh CNN1 (11734310_a_at) / RFU VPS37D (11726825_at) / Fold change /veh VPS37D (11726825_at) / RFU C10orf10 (11716522_x_at) / Fold change /veh C10orf10 (11716522_x_at) / RFU KIR2DL2 /// KIR2DL4 /// KIR2DL5A /// KIR2DL5B /// KIR2DS1 /// KIR2DS2 /// KIR2DS3 /// KIR2DS4 /// KIR3DL3 /// KIR3DL3 /// KIR3DS1 (11738374_at) / Fold change /veh KIR2DL2 /// KIR2DL4 /// KIR2DL5A /// KIR2DL5B /// KIR2DS1 /// KIR2DS2 /// KIR2DS3 /// KIR2DS4 /// KIR3DL3 /// KIR3DL3 /// KIR3DS1 (11738374_at) / RFU C1QL1 (11718748_at) / Fold change /veh C1QL1 (11718748_at) / RFU TMPRSS4 (11747572_a_at) / Fold change /veh TMPRSS4 (11747572_a_at) / RFU HAMP (11756126_x_at) / Fold change /veh HAMP (11756126_x_at) / RFU RNFT2 (11725882_a_at) / Fold change /veh RNFT2 (11725882_a_at) / RFU NR4A2 (11747474_a_at) / Fold change /veh NR4A2 (11747474_a_at) / RFU ABCC12 (11746883_a_at) / Fold change /veh ABCC12 (11746883_a_at) / RFU TMEM136 (11760407_x_at) / Fold change /veh TMEM136 (11760407_x_at) / RFU CLDN22 /// WWC2 (11732394_at) / Fold change /veh CLDN22 /// WWC2 (11732394_at) / RFU HLA-DPB1 (11760878_x_at) / Fold change /veh HLA-DPB1 (11760878_x_at) / RFU SPINT1 (11716480_a_at) / Fold change /veh SPINT1 (11716480_a_at) / RFU GAP43 (11754022_s_at) / Fold change /veh GAP43 (11754022_s_at) / RFU A4GNT (11735810_at) / Fold change /veh A4GNT (11735810_at) / RFU PRB3 (11715151_x_at) / Fold change /veh PRB3 (11715151_x_at) / RFU TUBB4B (11761932_at) / Fold change /veh TUBB4B (11761932_at) / RFU CAPN14 (11732068_a_at) / Fold change /veh CAPN14 (11732068_a_at) / RFU TMCC2 (11721928_a_at) / Fold change /veh TMCC2 (11721928_a_at) / RFU IRGQ (11745062_a_at) / Fold change /veh IRGQ (11745062_a_at) / RFU FAM174B (11720279_a_at) / Fold change /veh FAM174B (11720279_a_at) / RFU TMPRSS4 (11748680_a_at) / Fold change /veh TMPRSS4 (11748680_a_at) / RFU FAM212B (11763350_a_at) / Fold change /veh FAM212B (11763350_a_at) / RFU PLEKHG5 (11743358_a_at) / Fold change /veh PLEKHG5 (11743358_a_at) / RFU ZSCAN30 (11745921_a_at) / Fold change /veh ZSCAN30 (11745921_a_at) / RFU CMKLR1 (11741424_a_at) / Fold change /veh CMKLR1 (11741424_a_at) / RFU LOC101060620 /// MAPK8IP1 (11723275_at) / Fold change /veh LOC101060620 /// MAPK8IP1 (11723275_at) / RFU SPTSSB (11747773_x_at) / Fold change /veh SPTSSB (11747773_x_at) / RFU PRSS12 (11739890_at) / Fold change /veh PRSS12 (11739890_at) / RFU BIN1 (11741810_x_at) / Fold change /veh BIN1 (11741810_x_at) / RFU WNT11 (11732464_a_at) / Fold change /veh WNT11 (11732464_a_at) / RFU C10orf10 (11716521_a_at) / Fold change /veh C10orf10 (11716521_a_at) / RFU C5orf56 (11738089_at) / Fold change /veh C5orf56 (11738089_at) / RFU CYB561 (11721691_x_at) / Fold change /veh CYB561 (11721691_x_at) / RFU ANKRD19P (11752326_a_at) / Fold change /veh ANKRD19P (11752326_a_at) / RFU OR2T12 /// OR2T33 /// OR2T8 (11738714_s_at) / Fold change /veh OR2T12 /// OR2T33 /// OR2T8 (11738714_s_at) / RFU VCAN (11748164_a_at) / Fold change /veh VCAN (11748164_a_at) / RFU JSRP1 (11732532_at) / Fold change /veh JSRP1 (11732532_at) / RFU KRTAP10-11 (11738290_x_at) / Fold change /veh KRTAP10-11 (11738290_x_at) / RFU MYO3A (11730013_a_at) / Fold change /veh MYO3A (11730013_a_at) / RFU EBF3 (11725865_a_at) / Fold change /veh EBF3 (11725865_a_at) / RFU CAMK2N1 (11719241_x_at) / Fold change /veh CAMK2N1 (11719241_x_at) / RFU C5orf56 (11738088_a_at) / Fold change /veh C5orf56 (11738088_a_at) / RFU OLFML3 (11715873_a_at) / Fold change /veh OLFML3 (11715873_a_at) / RFU LOC100653217 /// NTM (11731650_a_at) / Fold change /veh LOC100653217 /// NTM (11731650_a_at) / RFU MAPK11 (11762145_a_at) / Fold change /veh MAPK11 (11762145_a_at) / RFU FIZ1 (11724087_x_at) / Fold change /veh FIZ1 (11724087_x_at) / RFU OASL (11726364_x_at) / Fold change /veh OASL (11726364_x_at) / RFU SOX15 (11748057_x_at) / Fold change /veh SOX15 (11748057_x_at) / RFU CD79A (11719716_a_at) / Fold change /veh CD79A (11719716_a_at) / RFU HIST1H1D (11736915_at) / Fold change /veh HIST1H1D (11736915_at) / RFU CASKIN2 (11723855_a_at) / Fold change /veh CASKIN2 (11723855_a_at) / RFU LOC730098 (11760151_x_at) / Fold change /veh LOC730098 (11760151_x_at) / RFU OR4N2 (11742367_at) / Fold change /veh OR4N2 (11742367_at) / RFU PRRT2 (11749266_a_at) / Fold change /veh PRRT2 (11749266_a_at) / RFU SNX32 (11753110_a_at) / Fold change /veh SNX32 (11753110_a_at) / RFU CDHR5 (11726645_a_at) / Fold change /veh CDHR5 (11726645_a_at) / RFU RCAN1 (11760418_a_at) / Fold change /veh RCAN1 (11760418_a_at) / RFU FAM167A (11723789_a_at) / Fold change /veh FAM167A (11723789_a_at) / RFU FAM26E (11764081_at) / Fold change /veh FAM26E (11764081_at) / RFU ISYNA1 (11749810_s_at) / Fold change /veh ISYNA1 (11749810_s_at) / RFU ACY1 (11761880_at) / Fold change /veh ACY1 (11761880_at) / RFU 11764098_at / Fold change /veh 11764098_at / RFU SAMD14 (11745864_x_at) / Fold change /veh SAMD14 (11745864_x_at) / RFU NPB (11741838_a_at) / Fold change /veh NPB (11741838_a_at) / RFU TMPRSS6 (11731388_a_at) / Fold change /veh TMPRSS6 (11731388_a_at) / RFU KRTAP10-2 (11738614_at) / Fold change /veh KRTAP10-2 (11738614_at) / RFU ARHGAP8 /// PRR5-ARHGAP8 (11727945_x_at) / Fold change /veh ARHGAP8 /// PRR5-ARHGAP8 (11727945_x_at) / RFU KRTAP5-7 /// NADSYN1 (11734609_at) / Fold change /veh KRTAP5-7 /// NADSYN1 (11734609_at) / RFU RASL12 (11751679_a_at) / Fold change /veh RASL12 (11751679_a_at) / RFU CDKN2B (11736163_a_at) / Fold change /veh CDKN2B (11736163_a_at) / RFU PRF1 (11729649_at) / Fold change /veh PRF1 (11729649_at) / RFU, ZNF638 /// ZNF638-IT1 / Fold change vs veh, ZNF638 /// ZNF638-IT1 / RFU, PANK3 / Fold change vs veh, PANK3 / RFU, SH3YL1 / Fold change vs veh, SH3YL1 / RFU, ZEB2 / Fold change vs veh, ZEB2 / RFU, NRIP1 / Fold change vs veh, NRIP1 / RFU, PTTG1IP / Fold change vs veh, PTTG1IP / RFU, CAPN2 / Fold change vs veh, CAPN2 / RFU, MED14 / Fold change vs veh, MED14 / RFU, SNORA58 / Fold change vs veh, SNORA58 / RFU, C1orf63 / Fold change vs veh, C1orf63 / RFU, LRRFIP1 / Fold change vs veh, LRRFIP1 / RFU, NDUFAF7 / Fold change vs veh, NDUFAF7 / RFU, SLC12A2 / Fold change vs veh, SLC12A2 / RFU, IBTK / Fold change vs veh, IBTK / RFU, ESF1 / Fold change vs veh, ESF1 / Fold change vs veh, TMEM50B / RFU, TAOK1 / Fold change vs veh, TAOK1 / RFU, ACBD3 / Fold change vs veh, ACBD3 / RFU, TMA16 / Fold change vs veh, TMA16 / RFU, RWDD3 / Fold change vs veh, RWDD3 / RFU, BCAT1 / Fold change vs veh, BCAT1 / RFU, EDEM3 / Fold change vs veh, EDEM3 / RFU, TMEM33 / Fold change vs veh, TMEM33 / RFU, WDR75 / Fold change vs veh, WDR75 / RFU, AHCTF1 / Fold change vs veh, AHCTF1 / RFU, TFRC / Fold change vs veh, TFRC / RFU, ZDHHC17 / Fold change vs veh, ZDHHC17 / RFU, NOM1 / Fold change vs veh, NOM1 / RFU, ARL8B / Fold change vs veh, ARL8B / RFU, ZBTB11 / Fold change vs veh, ZBTB11 / RFU, TAMM41 / Fold change vs veh, TAMM41 / RFU, KIAA1704 /// LOC100996395 / Fold change vs veh, KIAA1704 /// LOC100996395 / RFU, ING1 / Fold change vs veh, ING1 / RFU, TRMT61B / Fold change vs veh, TRMT61B / RFU, FUBP3 / Fold change vs veh, FUBP3 / RFU, TP53 / Fold change vs veh, TP53 / RFU, TNKS2 / Fold change vs veh, TNKS2 / RFU, ZFP14 / Fold change vs veh, ZFP14 / RFU, ACTR2 / Fold change vs veh, ACTR2 / RFU, PPP3R1 / Fold change vs veh, PPP3R1 / RFU, PIK3R1 / Fold change vs veh, PIK3R1 / RFU, HNRNPA1 / Fold change vs veh, HNRNPA1 / RFU, RNF170 / Fold change vs veh, RNF170 / RFU, ZNF28 / Fold change vs veh, ZNF28 / RFU, RNGTT / Fold change vs veh, RNGTT / RFU, OGT / Fold change vs veh, OGT / RFU, BRD1 / Fold change vs veh, BRD1 / RFU, MARS / Fold change vs veh, MARS / RFU, ZNF655 / Fold change vs veh, ZNF655 / RFU, FAHD1 / Fold change vs veh, FAHD1 / RFU, BDP1 / Fold change vs veh, BDP1 / RFU, LRRCC1 / Fold change vs veh, LRRCC1 / RFU, ARID1A / Fold change vs veh, ARID1A / RFU, ZNF146 / Fold change vs veh, ZNF146 / RFU, ZNF330 / Fold change vs veh, ZNF330 / RFU, GPN3 / Fold change vs veh, GPN3 / RFU, C9orf123 / Fold change vs veh, C9orf123 / RFU, N4BP2L2 / Fold change vs veh, N4BP2L2 / RFU, ARFIP1 / Fold change vs veh, ARFIP1 / RFU, FAM179B / Fold change vs veh, FAM179B / RFU, BCL10 / Fold change vs veh, BCL10 / RFU, UHRF1BP1L / Fold change vs veh, UHRF1BP1L / RFU, BET1 / Fold change vs veh, BET1 / RFU, CNOT2 / Fold change vs veh, CNOT2 / RFU, ZNF268 / Fold change vs veh, ZNF268 / Fold change vs veh, ZNF507 / RFU, DGCR2 / Fold change vs veh, DGCR2 / RFU, WDSUB1 / Fold change vs veh, WDSUB1 / Fold change vs veh, HSP90B1 /// MIR3652 / RFU, ADSS / Fold change vs veh, ADSS / RFU, GK / Fold change vs veh, GK / RFU, ZNF148 / Fold change vs veh, ZNF148 / RFU, TAF9 / Fold change vs veh, TAF9 / RFU, SLC1A5 / Fold change vs veh, SLC1A5 / RFU, SLMO2 / Fold change vs veh, SLMO2 / RFU, ABCC4 / Fold change vs veh, ABCC4 / RFU, LOC101060439 /// RAP1B / Fold change vs veh, LOC101060439 /// RAP1B / RFU, RFX7 / Fold change vs veh, RFX7 / RFU, GTPBP10 / Fold change vs veh, GTPBP10 / RFU, CNEP1R1 / Fold change vs veh, CNEP1R1 / RFU, BIVM-ERCC5 /// ERCC5 / Fold change vs veh, BIVM-ERCC5 /// ERCC5 / RFU, ILF3 / Fold change vs veh, ILF3 / RFU 11762660_at / Fold change /veh 11762660_at / RFU VCAN (11757783_s_at) / Fold change /veh VCAN (11757783_s_at) / RFU DDX43 (11728927_at) / Fold change /veh DDX43 (11728927_at) / RFU KRT8 (11758188_x_at) / Fold change /veh KRT8 (11758188_x_at) / RFU NKD1 (11759106_at) / Fold change /veh NKD1 (11759106_at) / RFU SRD5A1 (11742802_a_at) / Fold change /veh SRD5A1 (11742802_a_at) / RFU TPSAB1 /// TPSB2 (11721975_s_at) / Fold change /veh TPSAB1 /// TPSB2 (11721975_s_at) / RFU GSTM3 (11746129_a_at) / Fold change /veh GSTM3 (11746129_a_at) / RFU IL23R (11737362_x_at) / Fold change /veh IL23R (11737362_x_at) / RFU TMEM51 (11727254_a_at) / Fold change /veh TMEM51 (11727254_a_at) / RFU PIWIL2 (11732686_x_at) / Fold change /veh PIWIL2 (11732686_x_at) / RFU ORM1 (11744905_x_at) / Fold change /veh ORM1 (11744905_x_at) / RFU CCDC152 (11743942_at) / Fold change /veh CCDC152 (11743942_at) / RFU ECM1 (11717891_a_at) / Fold change /veh ECM1 (11717891_a_at) / RFU IL23R (11748794_a_at) / Fold change /veh IL23R (11748794_a_at) / RFU TNFAIP8L3 (11732012_x_at) / Fold change /veh TNFAIP8L3 (11732012_x_at) / RFU MBOAT4 (11741988_at) / Fold change /veh MBOAT4 (11741988_at) / RFU 11764193_at / Fold change /veh 11764193_at / RFU TMEM53 (11763286_at) / Fold change /veh TMEM53 (11763286_at) / RFU MAGEB2 (11727129_at) / Fold change /veh MAGEB2 (11727129_at) / RFU TMEM200A (11744735_a_at) / Fold change /veh TMEM200A (11744735_a_at) / RFU CCDC152 (11751479_a_at) / Fold change /veh CCDC152 (11751479_a_at) / RFU FAM211A (11726209_a_at) / Fold change /veh FAM211A (11726209_a_at) / RFU RGS16 (11746705_a_at) / Fold change /veh RGS16 (11746705_a_at) / RFU VCAN (11755009_s_at) / Fold change /veh VCAN (11755009_s_at) / RFU RHOB (11743442_s_at) / Fold change /veh RHOB (11743442_s_at) / RFU RGS16 (11720943_a_at) / Fold change /veh RGS16 (11720943_a_at) / RFU RGS16 (11720944_at) / Fold change /veh RGS16 (11720944_at) / RFU, VPS4B / Fold change vs veh, VPS4B / RFU, CREB1 / Fold change vs veh, CREB1 / RFU, DNAJC13 / Fold change vs veh, DNAJC13 / RFU, GNAQ / Fold change vs veh, GNAQ / RFU, CDK5R1 / Fold change vs veh, CDK5R1 / RFU, ZRANB3 / Fold change vs veh, ZRANB3 / RFU, CUL4A / Fold change vs veh, CUL4A / RFU, CCNY / Fold change vs veh, CCNY / RFU, UFL1 / Fold change vs veh, UFL1 / RFU, COG3 / Fold change vs veh, COG3 / RFU, DIAPH2 / Fold change vs veh, DIAPH2 / RFU, SKA2 / Fold change vs veh, SKA2 / RFU, AFF3 / Fold change vs veh, AFF3 / RFU, LMF1 / Fold change vs veh, LMF1 / RFU, IPO11 / Fold change vs veh, IPO11 / RFU, DFFB / Fold change vs veh, DFFB / RFU, FOXP1 / Fold change vs veh, FOXP1 / RFU, CARD8 / Fold change vs veh, CARD8 / RFU, STRN3 / Fold change vs veh, STRN3 / RFU, ADK / Fold change vs veh, ADK / RFU, RASSF2 / Fold change vs veh, RASSF2 / RFU, WIPF1 / Fold change vs veh, WIPF1 / RFU, LARP1B / Fold change vs veh, LARP1B / RFU, RASA1 / Fold change vs veh, RASA1 / RFU, RB1 / Fold change vs veh, RB1 / RFU, PPFIA1 / Fold change vs veh, PPFIA1 / RFU, MAT2A / Fold change vs veh, MAT2A / RFU, CCT5 / Fold change vs veh, CCT5 / RFU, WDR92 / Fold change vs veh, WDR92 / RFU, CUX1 / Fold change vs veh, CUX1 / RFU, TTC7A / Fold change vs veh, TTC7A / RFU, TMEM135 / Fold change vs veh, TMEM135 / RFU, DEPTOR / Fold change vs veh, DEPTOR / RFU, CPM / Fold change vs veh, CPM / RFU, DNAJB6 / Fold change vs veh, DNAJB6 / RFU, CACNA2D3 / Fold change vs veh, CACNA2D3 / RFU, DTX4 / Fold change vs veh, DTX4 / RFU, TFCP2 / Fold change vs veh, TFCP2 / RFU, GMCL1 /// GMCL1P1 / Fold change vs veh, GMCL1 /// GMCL1P1 / RFU, AEBP2 / Fold change vs veh, AEBP2 / RFU, SNHG1 /// SNORD22 /// SNORD25 /// SNORD26 /// SNORD27 /// SNORD28 /// SNORD29 /// SNORD31 / Fold change vs veh, SNHG1 /// SNORD22 /// SNORD25 /// SNORD26 /// SNORD27 /// SNORD28 /// SNORD29 /// SNORD31 / Fold change (Aza/veh), C12orf56 (ProbeSet 11735607_a_at) / Fold change (ACY-1035/veh), C12orf56 (ProbeSet 11735607_a_at) / Fold change (Aza/veh), FGFR1OP (ProbeSet 11751329_s_at) / Fold change (ACY-1035/veh), FGFR1OP (ProbeSet 11751329_s_at) / Fold change (Aza/veh), VPS36 (ProbeSet 11739960_a_at) / Fold change (ACY-1035/veh), VPS36 (ProbeSet 11739960_a_at) / RFU SYPL1 (11715823_x_at) / Fold change /veh SYPL1 (11715823_x_at) / RFU IGFBP7 (11715501_s_at) / Fold change /veh IGFBP7 (11715501_s_at) / RFU REEP3 (11722064_at) / Fold change /veh REEP3 (11722064_at) / RFU IGLL1 (11728026_x_at) / Fold change /veh IGLL1 (11728026_x_at): dose or concentration left out as unconfirmed.

As to `Nc1ncn([C@@H]2O[C@H](CO)[C@@H](O)[C@H]2O)c(=O)n1` [azacitidine], the “Fold change /veh CCDC152 (11751479_a_at)” value is listed as 2.85.
